Experimental data reported in US20230250096A1, “SUBSTITUTED PHENYL-1H-PYRROLO[2,3-c] PYRIDINE DERIVATIVES” (Janssen Pharmaceutica NV, priority 2021, published 2023).
Where two headings read alike, the source gives them in different places.

What was measured:
Assay type in all cases: cell-based, human
MEIS1 mRNA expression = MEIS1 mRNA expression assay (Quantigene Singleplex) in MOLM14 cells; settings: 48 hours incubation
Outline: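 MOLM14 cells, 3,750/well, exposed to increasing compound concentrations for 48 h. MEIS1 mRNA measured by QuantiGene Singleplex branched-DNA hybridization (lysis 45 min, hybridization 18–22 h, both 55 °C), normalized to RPL28. IC50 fitted to background-corrected fold change versus DMSO.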

MOLM14 cells = test: Proliferation assay (spheroid confluence, 8 days), MOLM14; settings: read-out: spheroid assay_MOLM14 IC50
Outline: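 Cells grown as spheroids in ultra-low attachment round-bottom wells (200 MOLM14 or OCI-AML3, 300 KO-52 per well) with compound dilutions at 0.3% DMSO, 8 days, 37° C. Confluence from live-cell imaging at day 8; % effect normalized to DMSO and high-dose reference/staurosporin, absolute IC50 from variable-slope fit.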

KO-52 cells = test: Proliferation assay (spheroid confluence, 8 days), KO-52 control cell line; settings: read-out: spheroid assay_KO-52 IC50
Experimental: The anti-proliferative effect of menin/MLL protein/protein interaction inhibitor test compounds was assessed in human leukemia cell lines. The cell line MOLM14 harbors a MLL translocation and expresses the MLL fusion protein MLL-AF9, respectively, as well as the wildtype protein from the second allele. OCI-AML3 cells that carry the NPM1c gene mutation were also tested. […] KO-52 was used as a control cell line containing two MLL (KMT2A) wildtype alleles in order to exclude compounds that display general cytotoxic effects.
MOLM14 cells were cultured in RPMI-1640 (Sigma Aldrich) supplemented with 10% heat-inactivated fetal bovine serum (HyClone), 2 mM L-glutamine (Sigma Aldrich) and 50 μg/ml gentamycin (Gibco). KO-52 and OCI-AML3 cell lines were propagated in alpha-MEM (Sigma Aldrich) supplemented with 20% heat-inactivated fetal bovine serum (HyClone), 2 mM L-glutamine (Sigma Aldrich) and 50 μg/ml gentamycin (Gibco).
In order to assess the anti-proliferative effects, 200 MOLM14 cells, 200 OCI-AML3 cells or 300 KO-52 cells were seeded in 200 μl media per well in 96-well round bottom, ultra-low attachment plates (Costar, catalogue number 7007). Cell seeding numbers were chosen based on growth curves to ensure linear growth throughout the experiment. Test compounds were added at different concentrations and the DMSO content was normalized to 0.3%. Cells were incubated for 8 days at 37° C. and 5% CO2. Spheroid like growth was measured in real-time by live-cell imaging (IncuCyteZOOM, Essenbio, 4×objective) acquiring images at day 8. Confluence (%) as a measure of spheroid size was determined using an integrated analysis tool.
In order to determine the effect of the test compounds over time, the confluence in each well as a measure of spheroid size, was calculated. Confluence of the highest dose of a reference compound was used as baseline for the LC (Low control) and the confluence of DMSO treated cells was used as 0% cytotoxicity (High Control, HC).
Absolute IC50 values were calculated as percent change in confluence as follows:
LC=Low Control: cells treated with e.g. 1 μM of the cytotoxic agent staurosporin, or e.g. cells treated with a high concentration of an alternative reference compound
HC=High Control: Mean confluence (%) (DMSO treated cells)
% Effect=100−(100*(Sample−LC)/(HC−LC))
GraphPad Prism (version 7.00) was used to calculate the IC50. Dose-response equation was used for the plot of % Effect vs Log10 compound concentration with a variable slope and fixing the maximum to 100% and the minimum to 0%.

Row | SMILES | IC50 (MEIS1 mRNA expression; Homo sapiens, MOLM-14, 48 h) [nM] | IC50 (MOLM14 cells; Homo sapiens, MOLM-14, MOLM14) [nM] | IC50 (KO-52 cells; Homo sapiens) [nM] | IC50 (MEIS1 mRNA expression) [nM] | IC50 (MOLM14 cells; MOLM14) [nM] | IC50 (KO-52 cells) [nM]
1 | CC(=O)N1CCC(CCN2CC[C@@H](Cc3cn(-c4ccc(F)cc4C(=O)N(C)C(C)C)c4cncc(C)c34)C2)CC1 [Compound 189] | 314 | 255 | 14400 | – | – | –
2 | COCCN(C)CCCC(C(C)C)N1CC[C@@H](Cc2cn(-c3ccc(F)cc3C(=O)N(C)C(C)C)c3cncc(Cl)c23)C1 (some centres unmarked) [Compound 3] | 10 | 4 | 1100 | – | – | –
3 | Cc1cncc2c1c(C[C@H]1CCN([C@H](C)C3CCOCC3)C1)cn2-c1ccc(F)cc1[S@](=N)(=O)C(C)C (single isomer, unassigned) [Compound 181a] | 111 | 44 | 4100 | – | – | –
4 | CC(=O)NC1CCC(N2CC[C@@H](Cc3cn(-c4ccc(F)cc4C(=O)N(C)C(C)C)c4cncc(C)c34)C2)CC1 (some centres unmarked) [Compound 201] | – | – | – | 47 | 31 | –
5 | CC(=O)N1CCC(CN2CC[C@@H](Cc3cn(-c4ccc(F)cc4C(=O)N4CCC5CC54)c4cncc(C)c34)C2)CC1 (single isomer, unassigned) [Compound 311a] | 14 | 18 | 7700 | – | – | –
6 | Cc1cncc2c1c(CC1CN(CC3CCNC(=O)CC3)C1)cn2-c1ccc(F)cc1C(=O)N(C)C(C)C (centres unmarked) [Compound 104] | 254 | 275 | > 15000 | – | – | –
7 | Cc1cncc2c1c(CC1CCN(CC3CCC(=O)N(C)CC3)C1)cn2-c1ccc(F)cc1C(=O)N(C)C(C)C (single isomer, unassigned) [Compound 184b] | – | – | – | 115 | 52 | > 15000
8 | COC[C@H](C1CCCCO1)N1CC[C@@H](Cc2cn(-c3ccc(F)cc3C(=O)N(C)C(C)C)c3cncc(C)c23)C1 (single isomer, unassigned) [Compound 165b] | 38 | 4 | 1900 | – | – | –
9 | Cc1cncc2c1c(C[C@@H]1CCN(C[C@@H]3CCOC3)C1)cn2-c1ccc(F)cc1C(=O)N(C)C(C)C (single isomer, unassigned) [Compound 190b] | 65 | 46 | 4900 | – | – | –
10 | Cc1cncc2c1c(C[C@@H]1CCN(C[C@H]3CCNC(=O)CC3)C1)cn2-c1ccc(F)cc1C(=O)N1[C@H](C)CC[C@H]1C (single isomer, unassigned) [Compound 352a] | 13 | 7 | > 15000 | – | – | –
11 | CC(=O)N1CC2CC(C1)C2N1CC[C@@H](Cc2cn(-c3ccc(F)cc3C(=O)N(C)C(C)C)c3cncc(C)c23)C1 (some centres unmarked) [Compound 209] | > 1000 | 458 | 12800 | – | – | –
12 | CC(=O)NC1CCC(N2CC[C@@H](Cc3cn(-c4ccc(F)cc4C(=O)N(C)C(C)C)c4cncc(C)c34)C2)CC1 (some centres unmarked) [Compound 200] | – | – | > 15000 | ~864 | 679 | –
13 | CC(=O)N1CCC(N2CC[C@H](Cc3cn(-c4ccc(F)cc4C(=O)N(C)C(C)C)c4cncc(C)c34)C2)C(C)C1 (single isomer, unassigned) [Compound 137a] | – | 15 | 1100 | 14 | – | –
14 | COCC(=O)N1CCC(CN2CC[C@@H](Cc3cn(-c4ccc(F)cc4C(=O)N(C)C(C)C)c4cncc(C)c34)C2)CC1 (single isomer, unassigned) [Compound 136] | 71 | 28 | 1400 | – | – | –
15 | Cc1cncc2c1c(C[C@@H]1CCN(CC3CCNC(=O)C3)C1)cn2-c1ccc(F)cc1C(=O)N(C)C(C)C (mixture of isomers) [Compound 212] | 322 | 305 | > 15000 | – | – | –
16 | Cc1cncc2c1c(C[C@@H]1CCN(C[C@H]3CCCCN3)C1)cn2-c1ccc(F)cc1C(=O)N(C)C(C)C [Compound 199] | 338 | 126 | 11800 | – | – | –
17 | CC(=O)N1CCC(N2CC[C@H](Cc3cn(-c4ccc(F)cc4C(=O)N(C)C(C)C)c4cncc(C)c34)C2)CC1 (single isomer, unassigned) [Compound 81] | – | 58 | 4000 | 77 | – | –
18 | Cc1cncc2c1c(C[C@@H]1CCN(CC3CCOCC3)C1)cn2-c1ccc(F)cc1S(=N)(=O)C(C)C (mixture of isomers) [Compound 78] | 327 | 111 | 8400 | – | – | –
19 | Cc1cncc2c1c(CC1CN(CC3CCOCC3)C1)cn2-c1ccc(F)cc1C(=O)N1CCC2CC21 (centres unmarked) [Compound 262] | 15 | 15 | 2900 | – | – | –
20 | COCCN(C)CCCC(C(C)C)N1CCC(Cc2cn(-c3ccc(F)cc3C(=O)N(C)C(C)C)c3cncc(F)c23)C1 (centres unmarked) [Compound 6] | 49 | 34 | 1500 | – | – | –
21 | CC(=O)N1C[C@@H]2CN(CCC[C@H](C(C)C)N3CC[C@H](Cc4cn(-c5ccc(F)cc5C(=O)N(C)C(C)C)c5cncc(Cl)c45)C3)C[C@H]2C1 (single isomer, unassigned) [Compound 19a] | < 3.3 | 3 | > 15000 | – | – | –
22 | CNC(=O)[C@H]1CC[C@H](CN2CC(Cc3cn(-c4ccc(F)cc4C(=O)N(C)C(C)C)c4cncc(C)c34)C2)CC1 [Compound 74] | 12 | 4 | 5200 | – | – | –
23 | CNC(=O)N1CCC(CN2CCC(Cc3cn(-c4ccc(F)cc4C(=O)N(C)C(C)C)c4cncc(C)c34)CC2)CC1 [Compound 202] | 25 | 7 | 3400 | – | – | –
24 | CC(=O)N1CCC(CN2CC[C@@H](Cc3cn(-c4ccc(F)cc4C(=O)N(CC(C)O)C(C)C)c4cncc(C)c34)C2)CC1 (some centres unmarked) [Compound 320] | 23 | 19 | 6900 | – | – | –
25 | CC(=O)N1CCN(CCCC(C(C)C)N2CC[C@@H](Cc3cn(-c4ccc(F)cc4C(=O)N(C)C(C)C)c4cncc(C)c34)C2)CC1 (mixture of isomers) [Compound 8] | 23 | 11 | 2400 | – | – | –
26 | CNC(=O)[C@H]1CC[C@H](CN2CC([C@H](C)c3cn(-c4ccc(F)cc4C(=O)N(C)C(C)C)c4cncc(C)c34)C2)CC1 (single isomer, unassigned) [Compound 164b] | 17 | 10 | 10400 | – | – | –
27 | Cc1cncc2c1c(C[C@@H]1CCN(CC3CCN(C(=O)C(C)C)CC3)C1)cn2-c1ccc(F)cc1C(=O)N1CCC[C@H]1CO [Compound 328] | ~154 | 50 | – | – | – | –
28 | Cc1cncc2c1c(C[C@@H]1CCN([C@@H](CO)C3CCCOC3)C1)cn2-c1ccc(F)cc1C(=O)N(C)C(C)C (single isomer, unassigned) [Compound 198a] | 13 | 10 | – | – | – | –
29 | Cc1cncc2c1c(C[C@@H]1CCN([C@H](CO)C3CCCOC3)C1)cn2-c1ccc(F)cc1C(=O)N(C)C(C)C (single isomer, unassigned) [Compound 198b] | 107 | – | > 15000 | – | – | –
